MIC data for 4 compounds are collected here from US6552196B2, “Quinolone carboxylic acid derivatives” (Dong Wha Pharmaceutical Industrial Co., Ltd., priority 1997, dated 2003).

Structures are written as SMILES. Values after ≈ are worked out from the molar mass of the structure shown.

What all share (assay): In vitro antibacterial activity (MIC), agar dilution
Common to all, as to assay type: cell-based
(In agar dilution the substance is mixed into plates at graded concentrations.)

Assay [1] concerns Streptococcus faecium MD 8b. The settings on record: Enterococcus faecium, MD8B, 2-fold agar dilution, Muller-Hinton agar, 18 hours at 37° C., read-out: minimum inhibitory concentration (MIC). The procedure: (§1) 10^7 cfu/ml of bacteria were inoculated and cultured for 18 hours at 37° C. and then the antibacterial activities were measured. For the methicillin resistant strains the activities were measured after 48 hours of cultivation at 30° C. Hoechst Standard strains were used for the testings.

The test system of another assay is Enterobacter clocae P99. The settings on record: 2-fold agar dilution, Muller-Hinton agar, 18 hours at 37° C., read-out: minimum inhibitory concentration (MIC). The procedure: as §1
Assay [2] deals with Enterobacter clocae 1321E. The settings on record: 2-fold agar dilution, Muller-Hinton agar, 18 hours at 37° C., read-out: minimum inhibitory concentration (MIC). As to the method: as §1
Assay [3] concerns Streptococcus pyogens 308A. The settings on record: 2-fold agar dilution, Muller-Hinton agar, 18 hours at 37° C., read-out: minimum inhibitory concentration (MIC). As to the method: as §1
A further assay has as its system Esherichia coli 1507E. As to conditions: 2-fold agar dilution, Muller-Hinton agar, 18 hours at 37° C., read-out: minimum inhibitory concentration (MIC). The procedure:
as §1

The subject of assay [4] is Staphylococcus aureus 285. The settings on record: 2-fold agar dilution, Muller-Hinton agar, 18 hours at 37° C., read-out: minimum inhibitory concentration (MIC). The procedure:
as §1

The test system of assay [5] is Klebsiella aerogenes 1522E. As to conditions: 2-fold agar dilution, Muller-Hinton agar, 18 hours at 37° C., read-out: minimum inhibitory concentration (MIC). As to the method:
as §1

The test system of another assay is Salmonella typhimurium. As to conditions: Salmonella enterica, 2-fold agar dilution, Muller-Hinton agar, 18 hours at 37° C., read-out: minimum inhibitory concentration (MIC). As to the method:
as §1

In a further assay the test system is Esherichia coli 078. The settings on record: 2-fold agar dilution, Muller-Hinton agar, 18 hours at 37° C., read-out: minimum inhibitory concentration (MIC). As to the method:
as §1

Assay [6] deals with Pseudomonas aeruginosa 9027. The settings on record: 2-fold agar dilution, Muller-Hinton agar, 18 hours at 37° C., read-out: minimum inhibitory concentration (MIC). The procedure:
as §1

The subject of assay [7] is Pseudomonas aeruginosa 1592E. The settings on record: 2-fold agar dilution, Muller-Hinton agar, 18 hours at 37° C., read-out: minimum inhibitory concentration (MIC). As to the method: as §1
The subject of the next assay is Klebsiella oxytoca 1082E. As to conditions: 2-fold agar dilution, Muller-Hinton agar, 18 hours at 37° C., read-out: minimum inhibitory concentration (MIC). The procedure: as §1
Assay [8] relates to Streptococcus pyogens 77A. As to conditions: 2-fold agar dilution, Muller-Hinton agar, 18 hours at 37° C., read-out: minimum inhibitory concentration (MIC). As to the method:
as §1

Another assay concerns Esherichia coli TEM. As to conditions: 2-fold agar dilution, Muller-Hinton agar, 18 hours at 37° C., read-out: minimum inhibitory concentration (MIC). As to the method:
as §1

The test system of assay [9] is Staphylococcus aureus SG511. The settings on record: 2-fold agar dilution, Muller-Hinton agar, 18 hours at 37° C., read-out: minimum inhibitory concentration (MIC). The procedure:
as §1

Assay [10] has as its system Staphylococcus aureus 503. The settings on record: 2-fold agar dilution, Muller-Hinton agar, 18 hours at 37° C., read-out: minimum inhibitory concentration (MIC). As to the method: as §1
A further assay has as its system Esherichia coli DC0. As to conditions: 2-fold agar dilution, Muller-Hinton agar, 18 hours at 37° C., read-out: minimum inhibitory concentration (MIC). The procedure:
as §1

Assay [11] deals with Pseudomonas aeruginosa 1771M. As to conditions: Pseudomonas aeruginosa, 1771M, 18 h, read-out: minimum inhibitory concentration (MIC). The procedure: as §1
The test system of assay [12] is Pseudomonas aeruginosa 1771. As to conditions: 2-fold agar dilution, Muller-Hinton agar, 18 hours at 37° C., read-out: minimum inhibitory concentration (MIC). As to the method: as §1

Consider `CON=C1CN(c2c(F)cc3c(=O)c(C(=O)O)cn(C4CC4)c3c2Cl)CC12CNC2` [Example 4, 1-Cyclopropyl-6-fluoro-8-chloro-7-[8-(methoxyimino)-2,6-diazaspiro[3,4]oct-6-yl]-4-oxo-1,4-dihydro-3-quinolinecarboxylic acid], for which the MIC was 0.098 µg/mL (≈ 0.225 µM) in [1]; 0.049 µg/mL (≈ 0.113 µM) in the assay on Enterobacter clocae P99; 0.025 µg/mL (≈ 0.0575 µM) in assay [2]; 0.195 µg/mL (≈ 0.448 µM) in assay [3]; 0.049 µg/mL (≈ 0.113 µM) in the assay with Esherichia coli 1507E; 0.049 µg/mL (≈ 0.113 µM) in assay [4]. Also, the MIC in assay [5] was 0.098 µg/mL (≈ 0.225 µM); in the assay with Salmonella typhimurium, 0.025 µg/mL (≈ 0.0575 µM); in the assay with Esherichia coli 078, 0.025 µg/mL (≈ 0.0575 µM); in assay [6], 0.781 µg/mL (≈ 1.8 µM); in assay [7], 0.781 µg/mL (≈ 1.8 µM); with Klebsiella oxytoca 1082E, 0.004 µg/mL (≈ 0.0092 µM). In addition, the MIC was 0.013 µg/mL (≈ 0.0299 µM) in [8]; 0.049 µg/mL (≈ 0.113 µM) with Esherichia coli TEM; 0.013 µg/mL (≈ 0.0299 µM) in [9]; 0.025 µg/mL (≈ 0.0575 µM) in assay [10]; 0.391 µg/mL (≈ 0.899 µM) in the assay with Esherichia coli DC0; 0.391 µg/mL (≈ 0.899 µM) in [11]. Also, the MIC in assay [12] was 0.781 µg/mL (≈ 1.8 µM).
Take `CON=C1CN(c2nc3c(cc2F)c(=O)c(C(=O)O)cn3-c2ccc(F)cc2F)CC12CNC2.CS(=O)(=O)O` [Example 7, 1-(2,4-Difluorophenyl)-6-fluoro-7-[8-(methoxyimino)-2,6-diazaspiro[3,4]oct-6-yl]-4-oxo-1,4-dihydro-1,8-naphthyridine-3-carboxylic acid methane sulfonate]: the MIC in [1] came to 0.098 µg/mL; with Enterobacter clocae P99, 0.098 µg/mL; in assay [2], 0.049 µg/mL; in assay [3], 0.195 µg/mL; with Esherichia coli 1507E it was 0.195 µg/mL; in assay [4] it was 0.049 µg/mL. Further, the MIC in assay [5] came out at 0.195 µg/mL; in the assay with Salmonella typhimurium it was 0.049 µg/mL; in the assay with Esherichia coli 078, 0.049 µg/mL; in [6], 1.56 µg/mL; in [7], 1.56 µg/mL; in the assay with Klebsiella oxytoca 1082E it was 0.013 µg/mL. The MIC in assay [8] was 0.013 µg/mL; with Esherichia coli TEM, 0.098 µg/mL; in assay [9] it was 0.013 µg/mL; in [10] it was 0.025 µg/mL; in the assay on Esherichia coli DC0, 0.781 µg/mL; in assay [11], 0.781 µg/mL. Besides, the MIC in [12] was determined as 1.56 µg/mL.
Regarding `CCON=C1CN(c2nc3c(cc2F)c(=O)c(C(=O)O)cn3C2CC2)CC12CNC2.CS(=O)(=O)O` [Example 8, 1-Cyclopropyl-6-fluoro-7-[8-(ethoxyimino)-2,6-diazaspiro[3,4]oct-6-yl]-4-oxo-1,4-dihydro-1,8-naphthyridine-3-carboxylic acid methanesulfonate], the MIC was determined as 0.098 µg/mL in [1]; 0.025 µg/mL in the assay on Enterobacter clocae P99; 0.025 µg/mL in [2]; 0.098 µg/mL in [3]; 0.049 µg/mL in the assay with Esherichia coli 1507E; 0.025 µg/mL in assay [4]. The MIC in [5] is 0.098 µg/mL; with Salmonella typhimurium, 0.013 µg/mL; in the assay with Esherichia coli 078, 0.013 µg/mL; in [6], 1.56 µg/mL; in assay [7], 0.781 µg/mL; in the assay with Klebsiella oxytoca 1082E, 0.004 µg/mL. Besides, the MIC in assay [8] was 0.007 µg/mL; with Esherichia coli TEM, 0.025 µg/mL; in [9], 0.007 µg/mL; in assay [10], 0.013 µg/mL; in the assay on Esherichia coli DC0 it was 0.391 µg/mL; in assay [11], 0.781 µg/mL. Further, in assay [12], the MIC amounted to 0.781 µg/mL.
Consider `CON=C1CN(c2nc3c(cc2F)c(=O)c(C(=O)O)cn3C2CC2)CC12CN(C)C2` [Example 10, 1-Cyclopropyl-6-fluoro-7-[8-(methoxyimino)-2-methyl-2,6-diazaspiro[3,4]oct-6-yl]-4-oxo-1,4-dihydro-1,8-naphthyridine-3-carboxylic acid], for which the MIC in [1] amounted to 0.098 µg/mL (≈ 0.236 µM); in the assay on Enterobacter clocae P99 it was 0.049 µg/mL (≈ 0.118 µM); in [2], 0.025 µg/mL (≈ 0.0602 µM); in assay [3] it was 0.098 µg/mL (≈ 0.236 µM); with Esherichia coli 1507E it was 0.049 µg/mL (≈ 0.118 µM); in assay [4], 0.049 µg/mL (≈ 0.118 µM). For the same compound, the MIC was 0.098 µg/mL (≈ 0.236 µM) in assay [5]; 0.049 µg/mL (≈ 0.118 µM) with Salmonella typhimurium; 0.013 µg/mL (≈ 0.0313 µM) with Esherichia coli 078; 0.781 µg/mL (≈ 1.88 µM) in assay [6]; 0.781 µg/mL (≈ 1.88 µM) in assay [7]; 0.007 µg/mL (≈ 0.0169 µM) with Klebsiella oxytoca 1082E. In addition, the MIC in [8] amounted to 0.013 µg/mL (≈ 0.0313 µM); with Esherichia coli TEM, 0.049 µg/mL (≈ 0.118 µM); in assay [9] it was 0.013 µg/mL (≈ 0.0313 µM); in [10] it was 0.025 µg/mL (≈ 0.0602 µM); in the assay on Esherichia coli DC0, 0.391 µg/mL (≈ 0.941 µM); in [11] it was 0.781 µg/mL (≈ 1.88 µM). Moreover, in assay [12], the MIC worked out at 0.781 µg/mL (≈ 1.88 µM).
